The target in the test is recombinant human SSTR3 (Homo sapiens, UniProt P32745). The test can be described thus: [125I]SST14 radioligand binding competition, filtration-based. An excerpt:
This was accomplished using filtration-based assays against the radiolabeled peptide ^[125I]SST14. The reference compound used was the peptide SST28.
SiFALP was also used to cyclize octreotide in a model reaction (Scheme 6).

Sequence of recombinant human SSTR3 (P32745 whole entry): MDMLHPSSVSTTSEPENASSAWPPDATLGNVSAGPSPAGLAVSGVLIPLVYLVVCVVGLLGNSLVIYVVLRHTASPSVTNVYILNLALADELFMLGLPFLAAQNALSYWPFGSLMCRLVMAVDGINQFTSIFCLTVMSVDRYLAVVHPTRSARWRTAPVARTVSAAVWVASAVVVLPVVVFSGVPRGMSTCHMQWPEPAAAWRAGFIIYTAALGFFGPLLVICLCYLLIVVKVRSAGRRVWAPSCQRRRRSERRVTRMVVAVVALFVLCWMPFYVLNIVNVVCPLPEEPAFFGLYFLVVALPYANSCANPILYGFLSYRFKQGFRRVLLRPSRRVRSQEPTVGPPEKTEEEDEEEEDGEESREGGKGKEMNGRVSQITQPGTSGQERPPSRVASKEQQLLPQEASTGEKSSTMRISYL

The term IC50 denotes the concentration that gives 50% inhibition. Regarding `C[C@@H](O)[C@@H]1NC(=O)[C@H](CCCCN)NC(=O)[C@@H](Cc2c[nH]c3ccccc23)NC(=O)[C@H](Cc2ccccc2)NC(=O)[C@@H](NC(=O)[C@H](N)Cc2ccccc2)CSC2=C(SC[C@@H](C(=O)N[C@H](CO)[C@@H](C)O)NC1=O)C(=O)N(Cc1cn(Cc3ccc([Si](F)(C(C)(C)C)C(C)(C)C)cc3)nn1)C2=O` [Octreo-SiFA], the IC50 is 211 nM.

(Values after US20250270238A1, “A NEW BIFUNCTIONAL LINCHPIN THAT REACTS SELECTIVELY WITH CYSTEINE RESIDUES TO INVOKE CYCLIZATION WHILE CONCURRENTLY INTRODUCING A DOTAGA MOIETY FOR RADIOMETAL CHELATION” (The Governors of the University of Alberta, priority 2022, published 2025).)
